# Reference: ChEMBL document CHEMBL1949553, “Microbial transformation of deoxyandrographolide and their inhibitory activity on LPS-induced NO production in RAW 264.7 macrophages” (Bioorg Med Chem Lett, 2012)
# What was measured:
# [1] = Cytotoxicity against mouse RAW264.7 cells assessed as cell viability at 100 uM after 24 hrs by MTT assay; format: cell-based; conditions: read-out: Activity
# [2] = test system: RAW264.7; experiment: Antiinflammatory activity in mouse RAW264.7 cells assessed as inhibition of LPS-induced NO production after 24 hrs by Griess method; format: functional, cell-based; conditions: RAW264.7, 24 h
SMILES,IC50 [2] [µM],"viability at 24 h, 100 µM [1] [%]"
C=C1CC[C@H]2[C@@](C)(C[C@H](O)C(=O)[C@@]2(C)CO)[C@@H]1CCC1=CCOC1=O,12.2,103
C=C1CC[C@@H]2[C@](C)(CO)[C@H](O)CC[C@@]2(C)[C@]1(O)CCC1=CCOC1=O,> 100,86
C=C1[C@H](O)C[C@H]2[C@@](C)(CCC(=O)[C@@]2(C)CO)[C@@H]1CCC1=CCOC1=O,58.2,102
C=C1CC[C@@H]2[C@](C)(CO)[C@H](O)C[C@@H](O)[C@@]2(C)[C@@H]1CCC1=CCOC1=O,> 100,101
C[C@]1(CO)[C@H]2CC=C(CO)[C@@H](/C=C/C3=CCOC3=O)[C@]2(C)CC[C@H]1O,39.1,106
C[C@]1(CO)[C@H]2CC[C@@]3(CO3)[C@@H](CCC3=CCOC3=O)[C@]2(C)CC[C@H]1O,> 100,88.4
C[C@@]12CCC(=O)[C@@](C)(CO)[C@H]1CC[C@@]1(CO1)[C@H]2CCC1=CCOC1=O,89.2,63.1
CN(C)c1ccc(O)c2c1C[C@H]1C[C@H]3[C@H](N(C)C)C(O)=C(C(N)=O)C(=O)[C@@]3(O)C(O)=C1C2=O [MINOCYCLINE],34.9,100
C[C@@]12CCC(=O)[C@@](C)(CO)[C@H]1CCC(CO)=C2CCC1=CCOC1=O,79,101
C=C1CC[C@H]2[C@@](C)(CCC(=O)[C@@]2(C)CO)[C@@H]1/C=C/C1=CCOC1=O,75.3,104
C=C1CC[C@@H]2[C@](C)(CO)[C@H](O)CC[C@@]2(C)[C@@H]1C/C=C(/C(=O)O)[C@@H](O)CO,> 100,104
C=C1CC[C@@H]2[C@](C)(COC3O[C@H](CO)[C@@H](O)[C@H](O)[C@H]3O)CCC[C@@]2(C)[C@@H]1CCC1=CCOC1=O (some centres not stated),> 100,81.4
CO[C@]1(CO)CC[C@@H]2[C@](C)(CO)[C@H](O)CC[C@@]2(C)[C@@H]1CCC1=CCOC1=O,> 100,100
C=C1CC[C@H]2[C@@](C)([C@H](O)CC(=O)[C@@]2(C)CO)[C@@H]1CCC1=CCOC1=O,61.9,100
C=C1CC[C@H]2[C@@](C)(CCC(=O)[C@@]2(C)CO)[C@@H]1CCC1=CCOC1=O,10.1,110
C=C1CC[C@@H]2[C@](C)(CO)[C@H](O)CC[C@@]2(C)[C@@H]1C/C=C1/C(=O)OC[C@@H]1O,26.5,65.2

# More lines, main results first:
IC50 [2] [µM],SMILES,"viability at 24 h, 100 µM [1] [%]"
> 100,C[C@@]1(CO)[C@H](O)CC[C@@]2(C)C(CCC3=CCOC3=O)=C(CO)CC[C@H]12,91.1
21,C=C1CC[C@@H]2[C@](C)(CO)[C@H](O)CC[C@@]2(C)[C@@H]1CCC1=CCOC1=O [DEOXYANDROGRAPHOLIDE],100
6.96,C=C1CC[C@@H]2[C@](C)(CO)[C@H](O)CC[C@@]2(C)[C@@H]1C/C=C1/C(=O)OC[C@H]1O [ANDROGRAPHOLIDE],49.6
10,C=C1CC[C@H]2[C@@](C)(C=CC(=O)[C@@]2(C)CO)[C@@H]1CCC1=CCOC1=O,100
> 100,C[C@@]1(CO)[C@H](O)CC[C@@]2(C)C(CCC3=CCOC3=O)=C(C=O)CC[C@H]12,99.7
97.2,C=C1CC[C@@H]2[C@](C)(CO)[C@H](O)CC[C@@]2(C)[C@]1(O)/C=C/C1=CCOC1=O,98.6
> 100,C=C1[C@@H](CCC2=CCOC2=O)[C@]2(C)CC[C@@H](O)[C@@](C)(CO)[C@H]2C[C@@H]1O,89.1
71.3,C[C@@]12CCC(=O)[C@@](C)(CO)[C@H]1CC=C(CO)[C@H]2CCC1=CCOC1=O,104
28.4,C=C1CC[C@@H]2[C@](C)(CO)C(=O)CC[C@@]2(C)[C@]1(O)CCC1=CCOC1=O,87.5
11.6,C=C1CC[C@@H]2[C@](C)(CO)CCC[C@@]2(C)[C@@H]1CCC1=CCOC1=O [ANDROGRAPANIN],99.8
